Experimental data from patent publication EP2451450B1, “Inhibitors of proline racemase enzymes for the treatment of Trypanosoma spp infections” (Institut Pasteur, priority 2009, dated 2011).

Test system: T. cruzi
Assay: Capture ELISA of Vero cultures infected 17h with or without inhibitor
Type: cell-based, Trypanosoma cruzi
Settings: 17h at 37°C, 10:1 parasite/cell ratio; 0-30 mM OxoPA, Br-OxoPA or 10-1000 µM PYC in DMSO; Fig. 9
Method: Flat-bottomed microtiter plates (Nunc, Denmark) were coated overnight at 4°C with rabbit anti-T. cruzi polyclonal antibodies and further blocked for 4 h at room temperature (RT) with 1% BSA, 0.05% Tween 20 in PBS. After washings, lysate samples from infected or control Vero cultures, or from T. cruzi, were then added and incubated at 4°C for 18h. Plates were washed with PBS-Tween and incubated for 2h at RT with polyclonal mouse anti-T. cruzi chronic serum, washed again and incubated for 1 h at RT with HRP-secondary antibodies. […] Optical densities were determined in a spectrophotometer at 450 nm and 650 nm and analyzed using Softmax Pro software.
To confirm the effect of the inhibitors in the initial steps of the host-parasite interaction, cultures were infected for 17h at 37°C at a 10:1 parasite/cell ratio with or without increasing doses of freshly prepared dilutions (0-30 mM) of OxoPA, Br-OxoPA (15), or (10-1000 µM) of PYC, previously dissolved in DMSO and further analyzed by capture ELISA (see methods and Fig. 9). […] Three ongoing studies were performed to determine whether TcPRAC inhibition by the new compounds affects parasite intracellular fate. To do this, host cells were infected for 17 hours then washed and different ligand concentrations (5 mM, 10 mM, 30, 100 mM) were added to the medium. The degree of infection was determined over 48 hours by capture ELISA. The number of parasites per well decreased in a dose-dependent manner (Fig. 7). These experiments indicate that TcPRAC inhibition by OxoPA and Br-OxoPA affects both cellular infection by T. cruzi and parasite development in tissues.

| Compound | inhibition of cellular infection |
| --- | --- |
| CC(=O)/C=C/C(=O)O [OxoPA, (E)-4-oxopent-2-enoic acid] | a clear dose dependent inhibition of cellular infection |
| O=C(O)/C=C/C(=O)CBr [Br-OxoPA, (E)-5-bromo-4-oxopent-2-enoic acid] | a clear dose dependent inhibition of cellular infection |
